From patent US20250304644A1, “PEPTIDES TRIPLE AGONISTS OF GIP, GLP-1 AND GLP-2” (BAINAN BIOTECH APS, priority 2021, published 2025) come the findings set out here.

Where two headings read alike, the source gives them in different places. *1 amine or outer side, *2 acyl side, *3 side chain or, on linkers, in order; H or OH if unused. Where a SMILES comes first, the peptide text is derived from it. Where no end group is shown, it is not given here. Side-chain parts run from the residue outwards. The star is where a group is joined. C18 diacid = O=C(O)CCCCCCCCCCCCCCCCC(=O)*; γGlu = O=C(O)[C@H](CCC(=O)[*:2])N[*:1]; AEEA = NCCOCCOCC(=O)O

Assay type in all cases: cell-based
One experiment addresses T1, human GIPR (Homo sapiens, UniProt P48546).
T1 construct: host or cells: COS-7
T1 sequence (P48546 22-466): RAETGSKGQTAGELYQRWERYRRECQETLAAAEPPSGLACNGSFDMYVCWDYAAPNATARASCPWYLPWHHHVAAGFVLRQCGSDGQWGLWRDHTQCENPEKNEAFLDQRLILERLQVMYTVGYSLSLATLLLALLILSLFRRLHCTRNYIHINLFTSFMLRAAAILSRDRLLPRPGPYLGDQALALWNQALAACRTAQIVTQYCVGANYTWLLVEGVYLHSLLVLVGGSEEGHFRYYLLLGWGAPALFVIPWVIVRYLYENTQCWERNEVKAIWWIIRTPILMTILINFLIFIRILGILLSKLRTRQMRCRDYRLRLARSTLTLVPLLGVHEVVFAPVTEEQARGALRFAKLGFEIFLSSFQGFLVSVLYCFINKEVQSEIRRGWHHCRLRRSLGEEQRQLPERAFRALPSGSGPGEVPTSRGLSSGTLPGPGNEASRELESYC
Put plainly: cAMP assay (HitHunter) in transiently transfected COS-7 cells expressing human GIPR. Particulars: for EC50: cAMP, COS-7 cells, human GIPR. (In general: Changes in cAMP serve as a functional read-out for many G protein-coupled receptors.)

In the next experiment the target is T2, human GLP-2R (Homo sapiens, UniProt O95838).
T2 construct: host or cells: COS-7
T2 sequence (O95838 1-553): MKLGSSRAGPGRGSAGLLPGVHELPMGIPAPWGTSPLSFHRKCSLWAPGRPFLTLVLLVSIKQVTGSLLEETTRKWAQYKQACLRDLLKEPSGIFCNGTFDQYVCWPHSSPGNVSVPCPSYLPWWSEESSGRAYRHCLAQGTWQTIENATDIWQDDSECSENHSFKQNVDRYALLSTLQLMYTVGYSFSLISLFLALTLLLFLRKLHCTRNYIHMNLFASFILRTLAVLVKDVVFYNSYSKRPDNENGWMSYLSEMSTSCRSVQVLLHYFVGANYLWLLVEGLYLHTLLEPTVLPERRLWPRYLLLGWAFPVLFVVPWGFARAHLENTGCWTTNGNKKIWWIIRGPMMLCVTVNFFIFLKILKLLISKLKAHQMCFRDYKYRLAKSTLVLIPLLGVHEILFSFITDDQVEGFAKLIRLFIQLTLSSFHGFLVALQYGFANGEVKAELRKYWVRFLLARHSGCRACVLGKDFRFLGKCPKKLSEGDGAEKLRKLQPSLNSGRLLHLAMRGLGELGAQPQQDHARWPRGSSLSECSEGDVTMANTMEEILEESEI
Put plainly: cAMP assay (HitHunter) in transiently transfected COS-7 cells expressing human GLP-2R.

A further experiment addresses T3, human GLP-1R (Homo sapiens, UniProt P43220).
T3 construct: host or cells: COS-7
Kind of experiment: cAMP assay (HitHunter) in transiently transfected COS-7 cells expressing human GLP-1R.

In a further experiment the target is T4, human SNAP-tagged GIPR (Homo sapiens, UniProt P48546).
T4 construct: host or cells: HEK293A
T4 sequence (P48546 22-466): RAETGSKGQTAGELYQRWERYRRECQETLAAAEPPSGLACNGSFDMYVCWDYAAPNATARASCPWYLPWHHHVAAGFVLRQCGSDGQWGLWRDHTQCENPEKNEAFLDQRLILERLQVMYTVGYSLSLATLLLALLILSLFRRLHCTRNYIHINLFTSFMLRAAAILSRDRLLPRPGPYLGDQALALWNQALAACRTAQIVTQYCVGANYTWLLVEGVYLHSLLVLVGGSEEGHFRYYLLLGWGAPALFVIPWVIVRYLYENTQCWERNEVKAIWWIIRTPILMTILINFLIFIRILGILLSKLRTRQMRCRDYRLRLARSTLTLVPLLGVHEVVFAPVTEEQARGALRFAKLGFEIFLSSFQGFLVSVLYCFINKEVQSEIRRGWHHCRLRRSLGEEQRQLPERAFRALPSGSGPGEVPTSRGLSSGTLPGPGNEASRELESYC
Put plainly: Receptor internalization assay, HEK293A cells expressing human SNAP-tagged GIPR. The note with it: for Relative hGIPR internalization (%): relative to hGIP 1-42 = 100.

Where [1] appears, read: COS-7, normalized to highest concentration of the endogenous ligand, read-out: Efficacy GIPR (Emax).
Where [2] appears, read: COS-7, normalized to highest concentration of the endogenous ligand, read-out: Efficacy GLP-2R (Emax).
[3] abbreviates: COS-7, normalized to highest concentration of the endogenous ligand, read-out: Efficacy GLP-1R (Emax).
Setting [4] is: cAMP, COS-7 cells, human GLP-1R, read-out: EC50 (nM) GLP-1R.
Setting [5] is: AUC of sigmoid curves up to 1 μM, 60 minutes at 37° C.

T3 sequence (P43220 24-463): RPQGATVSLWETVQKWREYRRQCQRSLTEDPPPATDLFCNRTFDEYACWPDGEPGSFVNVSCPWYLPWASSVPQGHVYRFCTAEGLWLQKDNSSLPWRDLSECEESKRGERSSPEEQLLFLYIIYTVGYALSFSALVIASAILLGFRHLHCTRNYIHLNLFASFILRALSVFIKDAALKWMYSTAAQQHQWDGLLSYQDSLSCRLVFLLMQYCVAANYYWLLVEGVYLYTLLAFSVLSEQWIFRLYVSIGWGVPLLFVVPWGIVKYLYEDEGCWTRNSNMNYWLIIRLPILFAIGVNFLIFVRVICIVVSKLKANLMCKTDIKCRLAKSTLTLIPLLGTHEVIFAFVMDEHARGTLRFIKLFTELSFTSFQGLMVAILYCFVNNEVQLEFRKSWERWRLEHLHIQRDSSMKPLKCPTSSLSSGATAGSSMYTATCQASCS

Consider `CC[C@H](C)[C@H](NC(=O)[C@H](Cc1ccccc1)NC(=O)[C@H](CC(=O)O)NC(=O)[C@H](CCCCNC(=O)COCCOCCNC(=O)COCCOCCNC(=O)CC[C@H](NC(=O)CCCCCCCCCCCCCCCCC(=O)O)C(=O)O)NC(=O)[C@H](C)NC(=O)[C@H](C)NC(=O)[C@H](CC(C)C)NC(=O)[C@H](CC(N)=O)NC(=O)[C@H](CC(=O)O)NC(=O)[C@H](CC(C)C)NC(=O)[C@@H](NC(=O)[C@@H](NC(=O)[C@H](CO)NC(=O)[C@H](Cc1ccc(O)cc1)NC(=O)[C@H](CC(=O)O)NC(=O)[C@H](CO)NC(=O)[C@@H](NC(=O)[C@H](Cc1ccccc1)NC(=O)[C@@H](NC(=O)CNC(=O)[C@H](CC(=O)O)NC(=O)[C@H](C)NC(=O)[C@@H](N)Cc1c[nH]cn1)[C@@H](C)O)[C@@H](C)O)[C@@H](C)O)[C@@H](C)CC)C(=O)N[C@@H](CC(N)=O)C(=O)N[C@@H](Cc1c[nH]c2ccccc12)C(=O)N[C@@H](CC(C)C)C(=O)N[C@H](C(=O)N[C@@H](CCC(N)=O)C(=O)N[C@H](C(=O)N[C@@H](CCCCN)C(=O)NCC(=O)N[C@@H](CCCCN)C(=O)N[C@@H](CCCCN)C(=O)O)[C@@H](C)O)[C@@H](C)CC` [Compound 18], for which the Emax (usually the size of the effect at its maximum, as opposed to the concentration needed) was 82% on human GIPR (setting [1]), 91% on human GLP-2R (setting [2]) and 112% at human GLP-1R (setting [3]). The EC50 (commonly the concentration at which the effect is half-maximal) on human GLP-1R (setting [4]) came to 0.06 nM. Also, the “Absolute hGIPR internalization (AUC)” value at human SNAP-tagged GIPR (setting [5]) worked out at 2.1.

As for `CC[C@H](C)[C@H](NC(=O)[C@H](Cc1ccccc1)NC(=O)[C@H](CC(=O)O)NC(=O)[C@H](CCCNC(=N)N)NC(=O)[C@H](C)NC(=O)[C@H](C)NC(=O)[C@H](CC(C)C)NC(=O)[C@H](CC(N)=O)NC(=O)[C@H](CC(=O)O)NC(=O)[C@H](CC(C)C)NC(=O)[C@@H](NC(=O)[C@@H](NC(=O)[C@H](CO)NC(=O)[C@H](Cc1ccc(O)cc1)NC(=O)[C@H](CC(=O)O)NC(=O)[C@H](CO)NC(=O)[C@@H](NC(=O)[C@H](Cc1ccccc1)NC(=O)[C@@H](NC(=O)CNC(=O)[C@H](CC(=O)O)NC(=O)[C@H](C)NC(=O)[C@@H](N)Cc1c[nH]cn1)[C@@H](C)O)[C@@H](C)O)[C@@H](C)O)[C@@H](C)CC)C(=O)N[C@@H](CC(N)=O)C(=O)N[C@@H](Cc1c[nH]c2ccccc12)C(=O)N[C@@H](CC(C)C)C(=O)N[C@H](C(=O)N[C@@H](CCC(N)=O)C(=O)N[C@H](C(=O)N[C@@H](CCCCN)C(=O)NCC(=O)N[C@@H](CCCCN)C(=O)N[C@@H](CCCCNC(=O)CC[C@H](NC(=O)CCCCCCCCCCCCCCCCC(=O)O)C(=O)O)C(=O)O)[C@@H](C)O)[C@@H](C)CC` [Compound 19] (H-HADGTFTSDYSTILDNLAARDFINWLIQTKGKK([γGlu-C18 diacid])-OH; N-terminus assumed), the Emax is 92% at human GIPR (setting [1]), 94% on human GLP-2R (setting [2]) and 106% at human GLP-1R (setting [3]). For the same molecule, the values for the EC50 on human GIPR and on human GLP-1R (setting [4]) were 0.631 nM and 0.06 nM, respectively. Also, on human GLP-2R (cAMP, fatty acid at C-terminus of 1-33 or 1-34 backbone), the “GLP-2R activation (in words)” value is listed as “reduction in GLP-2R activation”. The “Absolute hGIPR internalization (AUC)” value on human SNAP-tagged GIPR (setting [5]) was 8.9. In addition, at human SNAP-tagged GIPR, the “Relative hGIPR internalization (%)” value is 24%.

With “H-HADGTFTSDYSTILDKLAARDFINWLIQTKGKKNDWK([AEEA-AEEA-γGlu-C18 diacid])HNITQ-OH [Compound 25]”, the figures for the maximum response (Emax) on human GIPR (setting [1]), on human GLP-2R (setting [2]) and at human GLP-1R (setting [3]) were 107%, 117% and 116%, respectively. Further, the EC50 at human GIPR was 0.398 nM; at human GLP-1R (setting [4]), 0.05 nM. At human SNAP-tagged GIPR (setting [5]), the “Absolute hGIPR internalization (AUC)” value came out at 13.1. For the same molecule, on human SNAP-tagged GIPR, the “Relative hGIPR internalization (%)” value is 35%.

Regarding “HADGTFTSDYSTILDKK([AEEA-AEEA-γGlu-C18 diacid])AARDFINWLIQTKGKKNDWKHNITQ [Compound 23]”, the maximal response (Emax) at human GIPR (COS-7, read-out: Efficacy GIPR (Emax)) came to 82%; at human GLP-2R (COS-7, read-out: Efficacy GLP-2R (Emax)), 95%; at human GLP-1R (COS-7, read-out: Efficacy GLP-1R (Emax)), 105%. The molecule further showed a 50% effective concentration (EC50) on human GLP-1R of 0.05 nM. On human SNAP-tagged GIPR, the “Absolute hGIPR internalization (AUC)” value is given as 1.2. At human SNAP-tagged GIPR, the “Relative hGIPR internalization (%)” value turned out to be 3%.

Take “HADGTFTSDYSTILDKLAARDFINWLIQTKGKK([AEEA-AEEA-γGlu-C18 diacid])NDWKHNITQ-OH [Compound 24]”: the maximum response (Emax) on human GIPR (setting [1]) worked out at 96%; on human GLP-2R (setting [2]), 91%; on human GLP-1R (setting [3]), 113%. In addition, the EC50 on human GIPR worked out at 0.398 nM; on human GLP-1R (setting [4]) it was 0.05 nM. The “Absolute hGIPR internalization (AUC)” value on human SNAP-tagged GIPR (setting [5]) was 15.0. The “Relative hGIPR internalization (%)” value on human SNAP-tagged GIPR came to 41%.
